# Values of other authors, collected in patent EP2479272A1, “METHOD FOR PRODUCING MONATIN” (Ajinomoto Co., Inc., priority 2010, dated 2012).
# Conditions: compared with sucrose; from Patent Document 1
smiles,measurement,value
"N[C@@H](CC(O)(Cc1c[nH]c2ccccc12)C(=O)O)C(=O)O (stereo partly shown) [Monatin, 4-(indole-3-yl-methyl)-4-hydroxy-glutamic acid]",sweetness,one thousand and several hundreds times sweeter than sucrose
